Our source for the IC50, AC50 and EC50 values is ChEMBL document CHEMBL1201862, “PubChem BioAssay data set” (2004).

Test [1] has as its target Glucose-6-phosphate 1-dehydrogenase (Homo sapiens, UniProt P11413). As to the kind of experiment: inhibition of Homo sapiens G6PD, dose series – biochemical, fluorescence, selectivity assay for P. falciparum G6PD inhibitor project, dose response (AID 504792). Type of test: functional.
Test [2] has as its target T1, High affinity choline transporter 1 (Homo sapiens, UniProt Q9GZV3).
T1 sequence (Q9GZV3 whole entry): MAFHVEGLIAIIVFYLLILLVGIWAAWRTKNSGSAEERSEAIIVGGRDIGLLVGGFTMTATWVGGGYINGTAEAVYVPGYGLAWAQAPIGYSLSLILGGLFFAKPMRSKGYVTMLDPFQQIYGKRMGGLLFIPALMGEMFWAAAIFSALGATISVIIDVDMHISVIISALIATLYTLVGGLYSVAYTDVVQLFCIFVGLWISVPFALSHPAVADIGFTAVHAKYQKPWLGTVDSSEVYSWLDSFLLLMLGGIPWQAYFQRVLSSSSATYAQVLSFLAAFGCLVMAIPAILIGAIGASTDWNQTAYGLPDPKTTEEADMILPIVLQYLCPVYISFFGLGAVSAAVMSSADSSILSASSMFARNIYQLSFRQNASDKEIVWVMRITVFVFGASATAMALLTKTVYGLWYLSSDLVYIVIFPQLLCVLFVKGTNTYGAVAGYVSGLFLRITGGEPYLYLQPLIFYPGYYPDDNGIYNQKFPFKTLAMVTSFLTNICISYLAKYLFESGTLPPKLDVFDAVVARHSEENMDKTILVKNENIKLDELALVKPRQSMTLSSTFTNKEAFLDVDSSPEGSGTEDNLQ
As to the kind of experiment: human choline transporter blockers, potency – cell-based, 5-point CRC, membrane potential dye, dose response (AID 504840). The test is classed as functional.

In test [3] the target is Induced myeloid leukemia cell differentiation protein Mcl-1 (Homo sapiens, UniProt Q07820). Type of test: functional.
For a further test, the target named is Nonstructural protein 1 (Influenza A virus, UniProt Q194T2). The test is classed as functional, Influenza A virus (A/California/07/2009(H1N1)).
Test [4] concerns the target T2, Replicative DNA helicase DnaB (Mycobacterium tuberculosis, UniProt P9WMR3).
T2 sequence (P9WMR3 whole entry): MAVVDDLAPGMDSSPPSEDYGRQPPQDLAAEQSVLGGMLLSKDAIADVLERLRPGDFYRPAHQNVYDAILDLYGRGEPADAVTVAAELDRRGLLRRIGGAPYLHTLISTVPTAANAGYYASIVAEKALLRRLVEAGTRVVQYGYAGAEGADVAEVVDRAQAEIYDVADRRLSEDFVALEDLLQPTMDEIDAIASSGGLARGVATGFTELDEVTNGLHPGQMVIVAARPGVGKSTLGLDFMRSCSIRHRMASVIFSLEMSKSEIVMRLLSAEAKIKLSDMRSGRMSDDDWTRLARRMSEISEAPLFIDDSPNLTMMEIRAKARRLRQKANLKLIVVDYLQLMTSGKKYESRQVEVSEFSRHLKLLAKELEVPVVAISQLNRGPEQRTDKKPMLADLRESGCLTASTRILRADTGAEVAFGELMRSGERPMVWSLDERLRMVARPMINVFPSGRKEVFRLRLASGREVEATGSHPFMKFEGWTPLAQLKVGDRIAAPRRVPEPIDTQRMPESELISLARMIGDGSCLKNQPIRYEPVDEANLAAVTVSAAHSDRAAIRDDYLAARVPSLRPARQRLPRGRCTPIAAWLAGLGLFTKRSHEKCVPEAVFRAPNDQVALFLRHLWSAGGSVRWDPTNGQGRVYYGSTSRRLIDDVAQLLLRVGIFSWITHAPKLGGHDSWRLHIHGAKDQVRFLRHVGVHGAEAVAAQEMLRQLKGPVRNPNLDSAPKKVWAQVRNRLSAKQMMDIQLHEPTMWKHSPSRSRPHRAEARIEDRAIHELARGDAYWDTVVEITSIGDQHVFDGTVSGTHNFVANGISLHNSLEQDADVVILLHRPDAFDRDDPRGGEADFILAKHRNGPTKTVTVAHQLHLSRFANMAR
As to the kind of experiment: DnaB intein splicing inhibitors, dose response, biochemical, cell-free fluorescence (AID 449749). Type of test: functional.

Test [5] deals with T3, Polyadenylate-binding protein 1 (Homo sapiens, UniProt P11940). As to the kind of experiment: MLLE domain peptide-binding blockers, IC50 – biochemical, fluorescence polarization, FITC-PAM2 peptide, dose response (AID 602259). The test is classed as functional. Conditions: read-out: IC50_Mean.
For test [6], the target named is T4, Apoptotic protease-activating factor 1 (Homo sapiens, UniProt O14727).
T4 sequence (O14727 whole entry): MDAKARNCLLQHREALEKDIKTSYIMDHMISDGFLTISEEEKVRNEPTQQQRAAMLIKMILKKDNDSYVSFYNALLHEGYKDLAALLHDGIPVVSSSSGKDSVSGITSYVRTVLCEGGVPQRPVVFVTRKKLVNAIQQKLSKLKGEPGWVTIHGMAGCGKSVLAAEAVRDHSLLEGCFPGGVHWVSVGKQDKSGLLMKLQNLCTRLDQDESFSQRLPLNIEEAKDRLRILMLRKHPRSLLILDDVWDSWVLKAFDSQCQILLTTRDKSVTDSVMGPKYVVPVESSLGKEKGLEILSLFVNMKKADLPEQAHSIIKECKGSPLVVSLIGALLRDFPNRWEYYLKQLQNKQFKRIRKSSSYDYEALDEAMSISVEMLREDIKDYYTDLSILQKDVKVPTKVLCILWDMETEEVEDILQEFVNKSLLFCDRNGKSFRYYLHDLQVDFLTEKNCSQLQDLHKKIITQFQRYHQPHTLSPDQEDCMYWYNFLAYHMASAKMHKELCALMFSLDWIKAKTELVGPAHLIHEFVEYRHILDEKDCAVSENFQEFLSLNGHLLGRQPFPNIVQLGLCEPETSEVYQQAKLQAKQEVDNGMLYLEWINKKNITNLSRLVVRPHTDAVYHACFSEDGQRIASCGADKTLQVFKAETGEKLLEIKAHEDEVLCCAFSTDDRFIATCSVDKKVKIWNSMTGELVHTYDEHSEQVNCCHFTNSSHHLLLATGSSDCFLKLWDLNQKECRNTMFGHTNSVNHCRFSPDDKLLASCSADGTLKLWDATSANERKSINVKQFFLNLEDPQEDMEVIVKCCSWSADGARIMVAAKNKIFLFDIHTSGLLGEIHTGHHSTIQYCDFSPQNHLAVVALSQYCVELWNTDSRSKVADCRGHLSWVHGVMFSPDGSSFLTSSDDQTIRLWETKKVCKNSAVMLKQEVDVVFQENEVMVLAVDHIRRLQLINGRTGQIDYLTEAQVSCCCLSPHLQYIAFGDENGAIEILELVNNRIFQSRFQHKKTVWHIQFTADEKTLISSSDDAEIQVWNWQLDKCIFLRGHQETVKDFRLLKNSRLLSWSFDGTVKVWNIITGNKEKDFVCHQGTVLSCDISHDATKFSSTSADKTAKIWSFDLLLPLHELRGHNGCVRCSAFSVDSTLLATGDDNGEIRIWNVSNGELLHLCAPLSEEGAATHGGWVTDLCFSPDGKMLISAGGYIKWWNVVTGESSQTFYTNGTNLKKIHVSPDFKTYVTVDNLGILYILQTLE
Type of test: functional.

For the next test, the target named is T5, Protein RecA (Mycobacterium tuberculosis, UniProt P9WHJ3).
T5 sequence (P9WHJ3 whole entry): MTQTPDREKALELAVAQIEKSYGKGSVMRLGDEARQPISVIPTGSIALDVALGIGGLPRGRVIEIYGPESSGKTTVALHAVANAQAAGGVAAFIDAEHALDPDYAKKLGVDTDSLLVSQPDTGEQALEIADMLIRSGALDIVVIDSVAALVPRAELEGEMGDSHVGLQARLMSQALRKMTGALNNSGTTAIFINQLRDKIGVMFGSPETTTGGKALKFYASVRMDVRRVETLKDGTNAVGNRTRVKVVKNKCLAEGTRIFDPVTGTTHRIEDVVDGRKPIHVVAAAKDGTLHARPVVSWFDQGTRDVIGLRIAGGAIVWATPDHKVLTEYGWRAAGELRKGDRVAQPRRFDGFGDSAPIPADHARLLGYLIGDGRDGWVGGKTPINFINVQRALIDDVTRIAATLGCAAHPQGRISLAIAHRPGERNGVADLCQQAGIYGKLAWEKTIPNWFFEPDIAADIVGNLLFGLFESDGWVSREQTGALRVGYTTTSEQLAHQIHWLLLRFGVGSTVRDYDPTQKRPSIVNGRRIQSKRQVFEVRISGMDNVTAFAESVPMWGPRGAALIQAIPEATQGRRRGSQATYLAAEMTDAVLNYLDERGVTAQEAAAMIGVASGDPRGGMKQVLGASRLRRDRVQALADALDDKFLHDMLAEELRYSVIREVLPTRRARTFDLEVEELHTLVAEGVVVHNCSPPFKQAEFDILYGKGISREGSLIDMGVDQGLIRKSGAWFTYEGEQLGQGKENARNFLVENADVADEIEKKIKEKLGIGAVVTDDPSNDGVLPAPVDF
The test can be described thus: Fluorescence Cell-Free Homogeneous Dose Retest to Identify Inhibitors of RecA-Intein Splicing Activity. [Related pubchem assays (depositor defined):AID2097, AID2223, AID489010, AID492950]. Type of test: functional.

Test [7] deals with T3, Polyadenylate-binding protein 1. The test can be described thus: MLLE binding blockers, Cy5 peptide tracer – biochemical, fluorescence polarization, Cy5-PAM2 peptide, secondary, miRNA deadenylation inhibitor project, dose response (AID 602260). The following applies: read-out: IC50_Mean. Type of test: functional. (In general: Fluorescence polarisation rises when a labelled molecule tumbles more slowly, as on binding a larger partner.)

Another test has as its system HEK293. As to the kind of experiment: cells. Type of test: functional, cell-based. The following applies: Homo sapiens.
Test [8] has as its target T6, Nuclear receptor subfamily 0 group B member 1 (Homo sapiens, UniProt P51843).
T6 sequence (P51843 whole entry): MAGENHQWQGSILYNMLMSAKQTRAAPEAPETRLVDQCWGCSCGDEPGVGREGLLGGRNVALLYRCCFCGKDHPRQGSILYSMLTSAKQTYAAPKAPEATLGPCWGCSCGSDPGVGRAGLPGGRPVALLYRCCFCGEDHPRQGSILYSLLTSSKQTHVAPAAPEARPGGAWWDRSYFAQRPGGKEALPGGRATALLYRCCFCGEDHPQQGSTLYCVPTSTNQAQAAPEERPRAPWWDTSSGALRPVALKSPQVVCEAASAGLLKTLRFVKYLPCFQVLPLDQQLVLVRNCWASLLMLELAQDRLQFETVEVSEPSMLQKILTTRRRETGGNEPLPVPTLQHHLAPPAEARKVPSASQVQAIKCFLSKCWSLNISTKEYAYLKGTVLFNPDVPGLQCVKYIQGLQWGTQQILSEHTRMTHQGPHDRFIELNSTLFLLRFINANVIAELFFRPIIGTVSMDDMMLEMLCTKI
As to the kind of experiment: Luminescence-based cell-based high throughput dose response assay for inhibitors of the orphan nuclear receptor subfamily 0, group B, member 1 (DAX1; NR0B1). [Related pubchem assays (depositor defined):AID504766, AID504790]. Type of test: functional.

In a further test the test system is CHO. The test can be described thus: CHO cell viability loss, potency – luminescence, cytotoxicity control for TLR9-MyD88 binding inhibitor project, dose response (AID 588339).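 Also: CHO cells stably coexpressing TLR9 and MyD88 fusions from primary screen; compound exposure lasted 48 hours before viability readout.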 Type of test: functional, cell-based, hamster. Conditions: Cricetulus griseus.
Test [9] deals with Voltage-gated inwardly rectifying potassium channel KCNH2 (Homo sapiens, UniProt Q12809). Conditions: Potency.
For test [10], the target named is T7, Aryl hydrocarbon receptor (Homo sapiens, UniProt P35869).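 Also: confirmatory quantitative high-throughput screen measuring activation of the AhR signaling pathway.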
T7 sequence (P35869 whole entry): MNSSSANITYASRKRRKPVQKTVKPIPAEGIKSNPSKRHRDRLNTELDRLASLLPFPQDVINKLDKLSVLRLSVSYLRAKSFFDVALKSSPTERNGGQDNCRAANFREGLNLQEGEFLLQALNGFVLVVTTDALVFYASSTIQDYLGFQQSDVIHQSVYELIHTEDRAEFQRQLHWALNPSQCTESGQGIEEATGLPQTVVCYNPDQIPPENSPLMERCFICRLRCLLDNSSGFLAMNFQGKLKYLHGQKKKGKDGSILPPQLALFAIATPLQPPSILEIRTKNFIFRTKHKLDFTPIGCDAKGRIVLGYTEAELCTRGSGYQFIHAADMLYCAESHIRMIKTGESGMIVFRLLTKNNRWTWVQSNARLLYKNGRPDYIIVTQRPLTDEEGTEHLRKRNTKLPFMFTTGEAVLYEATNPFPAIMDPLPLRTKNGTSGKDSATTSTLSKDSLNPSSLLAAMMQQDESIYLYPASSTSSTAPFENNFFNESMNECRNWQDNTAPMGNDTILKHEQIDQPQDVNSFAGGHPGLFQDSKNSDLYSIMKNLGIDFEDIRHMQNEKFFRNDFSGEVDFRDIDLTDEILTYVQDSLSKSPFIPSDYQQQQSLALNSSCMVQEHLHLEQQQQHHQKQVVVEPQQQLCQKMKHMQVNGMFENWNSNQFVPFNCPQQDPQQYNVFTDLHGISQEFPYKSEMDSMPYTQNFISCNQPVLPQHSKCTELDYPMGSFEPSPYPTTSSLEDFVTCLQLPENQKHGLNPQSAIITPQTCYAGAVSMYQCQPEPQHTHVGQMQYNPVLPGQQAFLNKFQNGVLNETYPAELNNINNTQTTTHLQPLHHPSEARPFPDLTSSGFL
The following applies: Potency.

The source made the active and inactive calls.

Sequence of Glucose-6-phosphate 1-dehydrogenase (P11413 whole entry): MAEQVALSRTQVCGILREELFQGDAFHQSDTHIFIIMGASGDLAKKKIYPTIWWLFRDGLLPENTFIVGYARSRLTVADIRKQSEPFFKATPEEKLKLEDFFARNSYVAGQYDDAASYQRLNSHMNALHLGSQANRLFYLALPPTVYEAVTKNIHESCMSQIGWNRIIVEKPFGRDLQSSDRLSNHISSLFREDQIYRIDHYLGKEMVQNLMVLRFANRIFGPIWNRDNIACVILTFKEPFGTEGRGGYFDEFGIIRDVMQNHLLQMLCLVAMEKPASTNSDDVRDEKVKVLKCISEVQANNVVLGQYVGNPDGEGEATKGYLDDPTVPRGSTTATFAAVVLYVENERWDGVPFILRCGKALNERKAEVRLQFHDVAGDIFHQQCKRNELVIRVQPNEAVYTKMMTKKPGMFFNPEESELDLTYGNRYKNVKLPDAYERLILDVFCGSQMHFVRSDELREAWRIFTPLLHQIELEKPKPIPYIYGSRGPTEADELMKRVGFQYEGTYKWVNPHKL
Sequence of Voltage-gated inwardly rectifying potassium channel KCNH2 (Q12809 whole entry): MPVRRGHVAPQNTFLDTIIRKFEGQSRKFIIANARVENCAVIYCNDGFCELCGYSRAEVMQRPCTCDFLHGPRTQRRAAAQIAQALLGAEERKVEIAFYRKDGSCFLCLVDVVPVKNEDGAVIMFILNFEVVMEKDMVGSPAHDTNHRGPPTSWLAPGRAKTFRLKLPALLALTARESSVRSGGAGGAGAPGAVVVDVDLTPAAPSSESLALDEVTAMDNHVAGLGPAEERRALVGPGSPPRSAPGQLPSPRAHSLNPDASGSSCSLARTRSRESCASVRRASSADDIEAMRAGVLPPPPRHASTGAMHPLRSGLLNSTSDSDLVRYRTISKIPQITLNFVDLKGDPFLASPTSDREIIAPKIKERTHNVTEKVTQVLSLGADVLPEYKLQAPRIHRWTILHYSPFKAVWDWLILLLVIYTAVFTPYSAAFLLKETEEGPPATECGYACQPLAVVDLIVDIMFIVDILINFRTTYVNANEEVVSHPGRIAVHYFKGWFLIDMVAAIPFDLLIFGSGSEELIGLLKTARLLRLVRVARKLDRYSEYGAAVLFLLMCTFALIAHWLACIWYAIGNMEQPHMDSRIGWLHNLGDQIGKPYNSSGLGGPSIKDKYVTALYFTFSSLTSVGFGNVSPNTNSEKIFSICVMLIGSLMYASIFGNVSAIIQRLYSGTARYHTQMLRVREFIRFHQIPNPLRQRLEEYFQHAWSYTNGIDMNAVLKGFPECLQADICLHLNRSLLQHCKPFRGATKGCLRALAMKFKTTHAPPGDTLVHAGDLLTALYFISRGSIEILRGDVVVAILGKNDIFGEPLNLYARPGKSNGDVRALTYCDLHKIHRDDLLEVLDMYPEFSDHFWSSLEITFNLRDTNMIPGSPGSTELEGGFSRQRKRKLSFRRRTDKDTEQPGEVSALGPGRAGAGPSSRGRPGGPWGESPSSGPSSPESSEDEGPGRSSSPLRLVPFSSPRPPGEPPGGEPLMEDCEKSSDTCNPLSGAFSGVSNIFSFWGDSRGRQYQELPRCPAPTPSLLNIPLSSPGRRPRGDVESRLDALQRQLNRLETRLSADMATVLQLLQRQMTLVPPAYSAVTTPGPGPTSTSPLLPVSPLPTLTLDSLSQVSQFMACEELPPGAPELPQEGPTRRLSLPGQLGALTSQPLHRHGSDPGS
T3 sequence (P11940 whole entry, the tested form may be a part): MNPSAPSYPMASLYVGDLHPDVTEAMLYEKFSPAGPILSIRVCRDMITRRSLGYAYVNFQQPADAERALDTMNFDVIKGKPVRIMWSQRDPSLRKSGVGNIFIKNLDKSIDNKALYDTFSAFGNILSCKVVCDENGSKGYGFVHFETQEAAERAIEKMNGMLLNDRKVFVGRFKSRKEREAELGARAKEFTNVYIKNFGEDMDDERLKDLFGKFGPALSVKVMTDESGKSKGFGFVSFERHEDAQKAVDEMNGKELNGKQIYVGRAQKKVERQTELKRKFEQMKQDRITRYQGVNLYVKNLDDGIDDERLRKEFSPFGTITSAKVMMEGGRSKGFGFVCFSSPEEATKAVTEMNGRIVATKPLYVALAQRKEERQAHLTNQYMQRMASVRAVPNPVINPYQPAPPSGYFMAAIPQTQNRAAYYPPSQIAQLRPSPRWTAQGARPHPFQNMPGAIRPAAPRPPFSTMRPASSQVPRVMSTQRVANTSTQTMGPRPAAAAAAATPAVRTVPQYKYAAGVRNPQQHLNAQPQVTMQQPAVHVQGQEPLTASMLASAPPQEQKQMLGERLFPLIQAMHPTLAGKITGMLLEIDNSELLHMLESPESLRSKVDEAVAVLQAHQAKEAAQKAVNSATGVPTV
Sequence of Nonstructural protein 1 (Q194T2 whole entry): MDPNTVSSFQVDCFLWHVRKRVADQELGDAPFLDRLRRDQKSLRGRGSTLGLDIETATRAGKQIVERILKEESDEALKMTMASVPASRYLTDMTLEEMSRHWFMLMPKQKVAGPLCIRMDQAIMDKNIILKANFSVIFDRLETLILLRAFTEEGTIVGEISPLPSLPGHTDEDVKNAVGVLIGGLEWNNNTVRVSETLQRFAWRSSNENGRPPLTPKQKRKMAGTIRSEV
Sequence of Induced myeloid leukemia cell differentiation protein Mcl-1 (Q07820 whole entry): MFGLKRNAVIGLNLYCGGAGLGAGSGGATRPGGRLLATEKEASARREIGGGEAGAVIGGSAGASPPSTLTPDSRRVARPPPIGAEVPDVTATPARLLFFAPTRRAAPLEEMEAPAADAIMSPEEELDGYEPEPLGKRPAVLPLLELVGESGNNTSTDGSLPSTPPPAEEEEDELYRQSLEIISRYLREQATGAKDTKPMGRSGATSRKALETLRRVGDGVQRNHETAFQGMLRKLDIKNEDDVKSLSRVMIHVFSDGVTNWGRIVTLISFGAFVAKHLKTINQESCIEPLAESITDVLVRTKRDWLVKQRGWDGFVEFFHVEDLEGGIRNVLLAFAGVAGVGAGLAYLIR

On to `O=C1Nc2cc(C(=O)NCCCN3CCCC3)ccc2S/C1=C\c1ccccc1`, for which the IC50 in [1] was > 80 µM (inactive); in test [2] it was 14.5 µM (active).

In the case of `Cc1ccc(NC2=C(NC(=O)c3ccccc3)C(=O)c3ccccc3C2=O)cc1Cl`, the IC50 is 3.38 µM (active) in test [3]; 17.5 µM (active) on Nonstructural protein 1; > 66 µM (inactive) in [5]; > 80 µM (inactive) in [1]; 17 µM (active) in test [6]; > 66 µM (inactive) in test [7]. The AC50 – broadly, the concentration at which the activity in the assay is half-maximal – in test [4] is 3 µM (active). On Protein RecA, the EC50 (usually the concentration that produces a half-maximal response) is 2.52 µM (active).

Regarding `Cc1cc(Cl)c2oc(C(=O)N(CCO)Cc3ccccc3)c(C)c2c1`, the IC50 (in the test on HEK293; in [8]) was > 67.5 µM (inactive) throughout.

Consider `CCOc1ccc(N(CC(=O)Nc2ccc(C)c(C)c2)S(C)(=O)=O)cc1`, for which the IC50 (in the test with HEK293; in [8]) was > 67.5 µM (inactive) each time.

Consider `NNC(=O)c1oc2nc(-c3ccc(Cl)cc3)cc(-c3ccccc3)c2c1N`, for which the IC50 in the test on CHO is > 49.7 µM (inactive).

`Nc1ccc(/N=N\c2ccccc2)c(N)c1`: the AC50 in test [9] was 50.1 µM (inconclusive); in [10] it was 14.1 µM (inconclusive).

On to `CCOP(=S)(OCC)SCSC(C)(C)C` [TERBUFOS], for which the half-maximal activity concentration (AC50) in test [9] was 39.8 µM (inconclusive).
